Experimental data as given in patent publication US20220409619A1, “INHIBITORS OF HUMAN IMMUNODEFICIENCY VIRUS REPLICATION” (VIIV HEALTHCARE UK (No. 5) LIMITED, priority 2019, published 2022).

Key:
[1] = Compound cytotoxicity, XTT-based colorimetric assay; assay type: cell-based; conditions: human; uninfected MT2 cells, day 4, XTT-based colorimetric assay
Procedure: Compound cytotoxicity and the corresponding CC50 values were determined using the same protocol as described in the antiviral assay except that uninfected cells were used. Cytotoxicity was assessed on day 4 in uninfected MT2 cells by using a XTT (2,3-bis[2-Methoxy-4-nitro-5-sulfophenyl]-2H-tetrazolium-5-carboxyanilide inner salt)-based colorimetric assay (Sigma-Aldrich, St Louis, Mo.).

[2] = test system: recombinant NL4-3 virus (nef section replaced with Renilla luciferase gene) in MT-2 cells; experiment: HIV cell culture assay (antiviral activity, luciferase readout); assay type: cell-based; conditions: Renilla, NL43
Procedure: HIV cell culture assay—MT-2 cells, 293T cells and the proviral DNA clone of NL4-3 virus were obtained from the NIH AIDS Research and Reference Reagent Program. MT-2 cells were propagated in RPMI 1640 media supplemented with 10% heat inactivated fetal bovine serum (FBS), 100 μg/ml penicillin G and up to 100 units/mL streptomycin. The 293T cells were propagated in DMEM media supplemented with 10% heat inactivated FBS, 100 μg/mL penicillin G and 100 μg/mL streptomycin. A recombinant NL4-3 proviral clone, in which a section of the nef gene was replaced with the Renilla luciferase gene, was used to make the reference virus used in these studies. The recombinant virus was prepared through transfection of the recombinant NL4-3 proviral clone into 293T cells using Transit-293 Transfection Reagent from Mirus Bio LLC (Madison, Wis.). Supernatent was harvested after 2-3 days and the amount of virus present was titered in MT-2 cells using luciferase enzyme activity as a marker by measuring luciferase enzyme activity. Luciferase was quantitated using the EnduRen Live Cell Substrate from Promega (Madison, Wis.). Antiviral activities of compounds toward the recombinant virus were quantified by measuring luciferase activity in MT-2 cells infected for 4-5 days with the recombinant virus in the presence of serial dilutions of the compound.
The 50% effective concentration (EC50) was calculated by using the exponential form of the median effect equation where (Fa)=1/[1+(ED50/drug conc.)^m] (Johnson V A, Byington R T. Infectivity Assay. In Techniques in HIV Research. ed. Aldovini A, Walker B D. 71-76. New York: Stockton Press. 1990). Curve fitting and analysis were performed with ActivityBase XE Runner software version 9.1.0.4 using model 203 (ID Business Solutions, LTD, Guildford, UK).

Row | Structure (SMILES) | CC50 at 4 days [1] [nM] | EC50 [2] [nM]
1 | O=C(Cn1nc(C(F)F)c2c1C(F)(F)[C@@H]1C[C@H]21)N[C@@H](Cc1cc(F)cc(F)c1)c1nc(-c2ncc(F)cn2)cc(=O)n1-c1ccc(Cl)c2c(NS(=O)(=O)C3CC3)nn(CC(F)F)c12 (atropisomer, axis not shown; (aR)) [Example 30, N-((S)-1-((1′P)-1′-(4-chloro-3-(cyclopropanesulfonamido)-1-(2,2-difluoroethyl)-1H-indazol-7-yl)-5-fluoro-6′-oxo-1′,6′-dihydro-[2,4′-bipyrimidin]-2′-yl)-2-(3,5-difluorophenyl)ethyl)-2-((3bS,4aR)-3-(difluoromethyl)-5,5-difluoro-3b,4,4a,5-tetrahydro-1H-cyclopropa[3,4]cyclopenta[1,2-c]pyrazol-1-yl)acetamide] | > 100 | 0.2
2 | O=C(Cn1nc(C(F)F)c2c1C(F)(F)[C@@H]1C[C@H]21)N[C@@H](Cc1cc(F)cc(F)c1)c1nc(-c2ncccn2)cc(=O)n1-c1ccc(Cl)c2c(NS(=O)(=O)C3CC3)nn(CC(F)F)c12 (atropisomer, axis not shown; (aR)) [Example 48, N-((S)-1-((1′P)-1′-(4-chloro-3-(cyclopropanesulfonamido)-1-(2,2-difluoroethyl)-1H-indazol-7-yl)-6′-oxo-1′,6′-dihydro-[2,4′-bipyrimidin]-2′-yl)-2-(3,5-difluorophenyl)ethyl)-2-((3bS,4aR)-3-(difluoromethyl)-5,5-difluoro-3b,4,4a,5-tetrahydro-1H-cyclopropa[3,4]cyclopenta[1,2-c]pyrazol-1-yl)acetamide] | > 100 | 0.18
3 | O=C(Cn1nc(C(F)(F)F)c2c1C(F)(F)[C@@H]1C[C@H]21)N[C@@H](Cc1cc(F)cc(F)c1)c1nc(-c2nccc(C(F)(F)F)n2)cc(=O)n1-c1ccc(Cl)c2c(NS(=O)(=O)C3CC3)nn(CC(F)F)c12 [Example 26, N-((S)-1-((1′P)-1′-(4-chloro-3-(cyclopropanesulfonamido)-1-(2,2-difluoroethyl)-1H-indazol-7-yl)-6′-oxo-4-(trifluoromethyl)-1′,6′-dihydro-[2,4′-bipyrimidin]-2′-yl)-2-(3,5-difluorophenyl)ethyl)-2-((3bS,4aR)-5,5-difluoro-3-(trifluoromethyl)-3b,4,4a,5-tetrahydro-1H-cyclopropa[3,4]cyclopenta[1,2-c]pyrazol-1-yl)acetamide] | > 100 | 0.11
4 | COC(C)(C)C#Cc1cc(=O)n(-c2ccc(Cl)c3c(NS(=O)(=O)C4CC4)nn(CC(F)F)c23)c([C@H](Cc2cc(F)cc(F)c2)NC(=O)Cn2nc(C(F)(F)F)c3c2C(F)(F)[C@@H]2C[C@H]32)n1 (atropisomer, axis not shown; (P)) [Example 45, N-((S)-1-((1P)-1-(4-chloro-3-(cyclopropanesulfonamido)-1-(2,2-difluoroethyl)-1H-indazol-7-yl)-4-(3-methoxy-3-methylbut-1-yn-1-yl)-6-oxo-1,6-dihydropyrimidin-2-yl)-2-(3,5-difluorophenyl)ethyl)-2-((3bS,4aR)-5,5-difluoro-3-(trifluoromethyl)-3b,4,4a,5-tetrahydro-1H-cyclopropa[3,4]cyclopenta[1,2-c]pyrazol-1-yl)acetamide] | > 100 | 0.12
5 | CCOc1ncc(-c2cc(=O)n(-c3ccc(Cl)c4c(NS(C)(=O)=O)nn(C)c34)c([C@H](Cc3cc(F)cc(F)c3)NC(=O)Cn3nc(C(F)F)c4c3C(F)(F)[C@@H]3C[C@H]43)n2)cn1 (atropisomer, axis not shown; (P)) [Example 11, N-((S)-1-((1P)-1-(4-chloro-1-methyl-3-(methylsulfonamido)-1H-indazol-7-yl)-2′-ethoxy-6-oxo-1,6-dihydro-[4,5′-bipyrimidin]-2-yl)-2-(3,5-difluorophenyl)ethyl)-2-((3bS,4aR)-3-(difluoromethyl)-5,5-difluoro-3b,4,4a,5-tetrahydro-1H-cyclopropa[3,4]cyclopenta[1,2-c]pyrazol-1-yl)acetamide] | > 100 | 0.81
6 | CCOc1cnc(-c2cc(=O)n(-c3ccc(Cl)c4c(NS(=O)(=O)C5CC5)nn(CC(F)F)c34)c([C@H](Cc3cc(F)cc(F)c3)NC(=O)Cn3nc(C(F)F)c4c3C(F)(F)[C@@H]3C[C@H]43)n2)nc1 (atropisomer, axis not shown; (aR)) [Example 29, N-((S)-1-((1′P)-1′-(4-chloro-3-(cyclopropanesulfonamido)-1-(2,2-difluoroethyl)-1H-indazol-7-yl)-5-ethoxy-6′-oxo-1′,6′-dihydro-[2,4′-bipyrimidin]-2′-yl)-2-(3,5-difluorophenyl)ethyl)-2-((3bS,4aR)-3-(difluoromethyl)-5,5-difluoro-3b,4,4a,5-tetrahydro-1H-cyclopropa[3,4]cyclopenta[1,2-c]pyrazol-1-yl)acetamide] | > 100 | 0.052
7 | COc1ccnc(-c2cc(=O)n(-c3ccc(Cl)c4c(NS(=O)(=O)C5CC5)nn(CC(F)F)c34)c([C@H](Cc3cc(F)cc(F)c3)NC(=O)Cn3nc(C(F)F)c4c3C(F)(F)[C@@H]3C[C@H]43)n2)n1 (atropisomer, axis not shown; (aR)) [Example 33, N-((S)-1-((1′P)-1′-(4-chloro-3-(cyclopropanesulfonamido)-1-(2,2-difluoroethyl)-1H-indazol-7-yl)-4-methoxy-6′-oxo-1′,6′-dihydro-[2,4′-bipyrimidin]-2′-yl)-2-(3,5-difluorophenyl)ethyl)-2-((3bS,4aR)-3-(difluoromethyl)-5,5-difluoro-3b,4,4a,5-tetrahydro-1H-cyclopropa[3,4]cyclopenta[1,2-c]pyrazol-1-yl)acetamide] | > 100 | 0.13
8 | CC(F)(F)Cn1ccc(-c2cc(=O)n(-c3ccc(Cl)c4c(NS(=O)(=O)C5CC5)nn(CC(F)F)c34)c([C@H](Cc3cc(F)cc(F)c3)NC(=O)Cn3nc(C(F)F)c4c3C(F)(F)[C@@H]3C[C@H]43)n2)n1 (atropisomer, axis not shown; (P)) [Example 42, N-((S)-1-((1P)-1-(4-chloro-3-(cyclopropanesulfonamido)-1-(2,2-difluoroethyl)-1H-indazol-7-yl)-4-(1-(2,2-difluoropropyl)-1H-pyrazol-3-yl)-6-oxo-1,6-dihydropyrimidin-2-yl)-2-(3,5-difluorophenyl)ethyl)-2-((3bS,4aR)-3-(difluoromethyl)-5,5-difluoro-3b,4,4a,5-tetrahydro-1H-cyclopropa[3,4]cyclopenta[1,2-c]pyrazol-1-yl)acetamide] | > 100 | 0.21
9 | Cc1ccnc(-c2cc(=O)n(-c3ccc(Cl)c4c(NS(=O)(=O)C5CC5)nn(CC(F)F)c34)c([C@H](Cc3cc(F)cc(F)c3)NC(=O)Cn3nc(C(F)F)c4c3C(F)(F)[C@@H]3C[C@H]43)n2)n1 (atropisomer, axis not shown; (aR)) [Example 43, N-((S)-1-((1′P)-1′-(4-chloro-3-(cyclopropanesulfonamido)-1-(2,2-difluoroethyl)-1H-indazol-7-yl)-4-methyl-6′-oxo-1′,6′-dihydro-[2,4′-bipyrimidin]-2′-yl)-2-(3,5-difluorophenyl)ethyl)-2-((3bS,4aR)-3-(difluoromethyl)-5,5-difluoro-3b,4,4a,5-tetrahydro-1H-cyclopropa[3,4]cyclopenta[1,2-c]pyrazol-1-yl)acetamide] | > 100 | 0.17
10 | CCOc1ncc(-c2cc(=O)n(-c3ccc(Cl)c4c(NS(=O)(=O)C5CC5)nn(CC(F)F)c34)c([C@H](Cc3cc(F)cc(F)c3)NC(=O)Cn3nc(C(F)F)c4c3C(F)(F)[C@@H]3C[C@H]43)n2)cn1 (atropisomer, axis not shown; (P)) [Example 49, N-((S)-1-((1P)-1-(4-chloro-3-(cyclopropanesulfonamido)-1-(2,2-difluoroethyl)-1H-indazol-7-yl)-2′-ethoxy-6-oxo-1,6-dihydro-[4,5′-bipyrimidin]-2-yl)-2-(3,5-difluorophenyl)ethyl)-2-((3bS,4aR)-3-(difluoromethyl)-5,5-difluoro-3b,4,4a,5-tetrahydro-1H-cyclopropa[3,4]cyclopenta[1,2-c]pyrazol-1-yl)acetamide] | > 100 | 0.58
11 | Cn1nc(NS(C)(=O)=O)c2c(Cl)ccc(-n3c([C@H](Cc4cc(F)cc(F)c4)NC(=O)Cn4nc(C(F)F)c5c4C(F)(F)[C@@H]4C[C@H]54)nc(-c4nccc(C(F)F)n4)cc3=O)c21 (atropisomer, axis not shown; (aR)) [Example 5, N-((S)-1-((1′P)-1′-(4-chloro-1-methyl-3-(methylsulfonamido)-1H-indazol-7-yl)-4-(difluoromethyl)-6′-oxo-1′,6′-dihydro-[2,4′-bipyrimidin]-2′-yl)-2-(3,5-difluorophenyl)ethyl)-2-((3bS,4aR)-3-(difluoromethyl)-5,5-difluoro-3b,4,4a,5-tetrahydro-1H-cyclopropa[3,4]cyclopenta[1,2-c]pyrazol-1-yl)acetamide] | > 100 | 0.054
